Measured values published in US20200129570A1, “Specific Bacterial Species and Metabolite That Improves Immune Checkpoint Inhibitor Therapy Efficacy” (BOARD OF REGENTS, THE UNIVERSITY OF TEXAS SYSTEM, priority 2017, published 2020).
“And” between values parts separate entries of the source, which are not always exact repeats. Equal values may be shown once. “Also recorded” adds a separate entry of the source.

Test system: unresectable or metastatic melanoma
Experiment: Single-site correlative study: RECIST v1.1 response to immune checkpoint inhibitor therapy (ICT) in metastatic melanoma patients
Type: in vivo, human
Settings: for RECIST Category / Change in tumor size (%): individual metastatic melanoma patient, one line per patient; for Change in tumor size (%): RECIST v1.1; for number of patients who responded: monotherapy, metastatic melanoma
Protocol: Patients and Methods. The study design was a single-site, correlative study of the effects of gut microbiota and metabolites on ICT efficacy in 39 patients. The study was approved by the University of Texas Southwestern Medical Center Institutional Review Board (IRB # STU012016-056). The study was conducted in accordance with the Declaration of Helsinki. The inventors enrolled patients with a histologic diagnosis of unresectable or metastatic melanoma that were scheduled to begin ICT and able to collect stool specimens, store them in a freezer and deliver them to the University of Texas Southwestern Cancer Center facility. In addition, patients had to have measurable disease by Response Evaluation Criteria in Solid Tumors (RECIST) v1.1. Tumor sizes were evaluated within 4 weeks prior to beginning therapy by exams, CT scans, and/or MRIs. […] After informed consent, stool samples were collected and immediately frozen until transferred to the University of Texas Southwestern Medical Center at pretreatment and various times post-therapy. Repeat exams and scans were obtained every 2-3 months. Demographics, antibiotic use, and probiotic exposure were recorded for each patient. Patient response, stable disease and progression were evaluated by RECIST v1.1 criteria as reported.

Substance | RECIST Category | Change in tumor size (%) | number of patients who responded | RECIST responders (patients/treated) (metastatic melanoma patients)
ipilimumab | Response | −100% | One | –
nivolumab | Response | −70% | One | –
pembrolizumab | Progression; also recorded: Response; also recorded: Stable | 53% and 81% and −36% and −68% and 100% (2×) and −27% and −14% and 0% and 125% and 46% and −48% and 131% | – | 3/13
